In US20180217131A1, “Novel Cell Based Assay” (Medical Diagnostic Laboratories, LLC, priority 2017, published 2018):
Substitutions are numbered along the chain they refer to.

Legend:
Type in all cases: cell-based
[1] = target: T1, aromatase (wild-type CYP19A1) (Homo sapiens, UniProt P11511); assay: Aromatase reporter assay, 3×ERE-luc clone #4 cells transfected with expression constructs of estrogen receptor and aromatase; details: 24 hours; for testosterone-induced luciferase reporter activity in the presence of aromatase inhibitor: clone #4, testosterone with or without inhibitor
T1 construct: expressed in transfected cells; host or cells: HEK 293-derived 3xERE-luc clone #4 (co-transfected with ESR1) or clone #1 (stably expressing wild-type ESR1)
T1 sequence (P11511 1-503): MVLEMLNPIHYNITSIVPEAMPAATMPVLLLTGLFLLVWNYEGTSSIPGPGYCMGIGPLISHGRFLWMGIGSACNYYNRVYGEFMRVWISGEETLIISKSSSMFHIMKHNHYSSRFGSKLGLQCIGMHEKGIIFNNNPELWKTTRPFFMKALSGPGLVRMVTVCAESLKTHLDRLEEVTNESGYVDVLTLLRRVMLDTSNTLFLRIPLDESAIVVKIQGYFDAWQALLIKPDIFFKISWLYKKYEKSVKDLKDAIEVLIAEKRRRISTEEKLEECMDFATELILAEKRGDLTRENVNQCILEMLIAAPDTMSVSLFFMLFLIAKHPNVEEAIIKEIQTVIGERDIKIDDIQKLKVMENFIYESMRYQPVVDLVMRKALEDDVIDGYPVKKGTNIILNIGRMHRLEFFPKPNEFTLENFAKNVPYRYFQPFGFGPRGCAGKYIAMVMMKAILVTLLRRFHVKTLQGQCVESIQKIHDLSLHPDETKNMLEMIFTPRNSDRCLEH
Method: A serial dilution of testosterone was added to the cells for 24 hours. The luciferase reporter activity was measured.
The transfected cells were treated with testosterone in the presence or absence of aromatase inhibitors, anastrozole and letrozole, for 24 hours (FIG. 31).

[2] = target: T1, aromatase (wild-type CYP19A1); assay: Aromatase reporter assay, clone #1 cells (stable 3×ERE-Luc and wild-type ESR1) transfected with linear expression cassette of wild-type CYP19A1
Method: The luciferase reporter activity was measured 24 hours post-transfection.

[3] = target: T2, R192H mutant of aromatase (CYP19A1) (Homo sapiens, UniProt P11511, R192H); assay: Aromatase reporter assay with R192H mutant of CYP19A1
T2 construct: expressed in transfected cells; host or cells: HEK 293-derived reporter cells (clone #4 with ESR1 co-transfected; clone #1 stably expressing ESR1)
T2 sequence (P11511 1-503 R192H): T1 sequence (P11511 1-503) with R192H
Method: (§1) The transfected cells were treated with a serial dilution of testosterone. The luciferase reporter activity was measured 24 hours post-transfection.
R192H corresponds to a missense mutation of CYP19A1, which changed arginine (R) into histidine (H) at amino acid position of 192. In order to functionally characterize this mutation, PCR-mediated overlapping extension was employed to construct linear expression cassette of aromatase carrying this mutation. We first transfected the linear expression cassette of either wild-type aromatase or mutant aromatase DNA into the reporter cells followed by treatment with testosterone and its inhibitors using “all-in-one” method. The luciferase reporter activity was measured 24 hours post-transfection.
We used the formula as illustrated in the above-mentioned example to calculate the activity of aromatase.

[4] = target: T3, R435C mutant of aromatase (CYP19A1) (Homo sapiens, UniProt P11511, R435C); assay: Aromatase reporter assay with R435C mutant of CYP19A1
T3 construct: expressed in transfected cells; host or cells: HEK 293-derived reporter cells (clone #4 with ESR1 co-transfected; clone #1 stably expressing ESR1)
T3 sequence (P11511 1-503 R435C): T1 sequence (P11511 1-503) with R435C
Method: as §1
R435C corresponds to a missense mutation of CYP19A1, which changed arginine (R) into cysteine (C) at amino acid position of 435. In order to functionally characterize this mutation, PCR-mediated overlapping extension was employed to construct linear expression cassette of aromatase carrying this mutation. We first transfected the linear expression cassette of either wild-type aromatase or mutant aromatase DNA into the reporter cells followed by treatment with testosterone and its inhibitors using “all-in-one” method. The luciferase reporter activity was measured 24 hours post-transfection.

Row | SMILES | testosterone-induced luciferase reporter activity in the presence of aromatase inhibitor [1] | luciferase activity upon treatment of testosterone ([1]; clone #4, estrogen receptor and aromatase constructs, serial dilution of testosterone) | luciferase reporter activity upon addition of testosterone ([2]; clone #1, 25 ng or 50 ng aromatase linear DNA, testosterone for 6 hours) | reporter signal at 1 pM of testosterone ([2]; clone #1, 50 ng linear cassette, testosterone for 24 hours, 1 pM) | luciferase activity upon treatment of testosterone, compared to wild type ([3]; clone #1, linear expression cassette of R192H, all-in-one method) | luciferase reporter activity upon testosterone, compared to wild type ([3]; clone #4, expression constructs of estrogen receptor and R192H aromatase, serial dilution of testosterone) | luciferase activity upon treatment of testosterone ([4]; clone #1, linear expression cassette of R435C, all-in-one method) | induction of luciferase reporter activity upon testosterone exposure ([4]; clone #4, expression constructs of estrogen receptor and R435C aromatase)
1 | N#Cc1ccc(C(c2ccc(C#N)cc2)n2cncn2)cc1 [letrozole] | reduced | – | – | – | – | – | – | –
2 | C[C@]12CC[C@H]3[C@@H](CCC4=CC(=O)CC[C@@]43C)[C@@H]1CC[C@@H]2O [testosterone] | – | dose dependent activation of luciferase activity was observed | responded to testosterone in a dose-dependent manner | robust reporter signal was detected | reduced luciferase activity was observed | reduced luciferase reporter activity | no increase in luciferase activity was observed | no induction of luciferase reporter activity
3 | CC(C)(C#N)c1cc(Cn2cncn2)cc(C(C)(C)C#N)c1 [anastrozole] | reduced | – | – | – | – | – | – | –
